Test results taken from patent US8933270B2, “Use of docasatrienes, resolvins, and their stable analogs in the treatment of airway diseases and asthma” (The Brigham and Women's Hospital, Inc., priority 2002, dated 2015).

How the values were obtained:
PMN infiltration = assay: Zymosan A-induced peritonitis; assay type: in vivo, FVB mice; conditions: i.v. bolus before zymosan A, lavage at 2 h
Description: FIG. 5 depicts Bioimpact properties of omega-3-derived Resolvins. A) Human glioma cells: Inhibition of TNF-stimulated IL-1β transcripts DBTRG-05MG cells 10^6/ml were stimulated with 50 ng/ml of human recombinant TNFα for 16 hours to induce expression of IL-1β transcripts. Concentration dependence with COX-2 products: 17-HDHA (n), 13-HDHA (l)and di-/tri-HDHA (n). […] (insets) Results are representative of RT-PCR gels of MG cells exposed to 100 nM of 13-HDHA or 17-HDHA and graphed after normalization of the IL-1β transcripts using GAPDH. B) Influence of eicosanoids and docosanoids on fMLP-induced neutrophil migration across micovascular endothelial monolayers Neutrophils (1×10^6 cells/monolayer) were exposed to vehicle containing buffer, or indicated concentrations of aspirin-triggered LXA4 analog (closed diamonds) 5S,12,18R-triHEPE (closed squares), 17R-HDHA (closed circles) or 13-HDHA (closed triangles) for 15 minutes at 37° C. Neutrophils were then layered on HMVEC monolayers and stimulated to transmigrate by a 10^−8 M fMLP gradient for 1 hr at 37° C. Transmigration was assessed by quantitation of the neutrophil marker myeloperoxidase. Results are presented as mean±SEM number of PMN (n=8-12 monolayers per condition). C) Reduction of PMN in murine peritonitis and skin pouch peritonitis: Compounds (100 ng in 120 μL sterile saline) were injected by intravenous bolus injection into the mouse tail vein and followed by 1 ml zymosan A (1 mg/ml) into the peritoneum. Peritoneal lavages were collected (2 h) and cell types were enumerated.
Human PMN transendothelial migration was quantitated by monitoring myeloperoxidase (MPO) an azurophilic granule marker as in (34, 37). Inflammatory exudates were initiated with intrapouch injection of recombinant mouse TNFα (100 ng/pouch; R&D Systems) into dorsal air pouches (10) of 6-8 wk male FVB mice fed laboratory rodent diet 5001 (Lab Diet, Purina Mills) containing less than 0.25% arachidonic acid, 1.49% EPA and 1.86% DHA followed by ASA (500 μg) at 3.5 h and 300 μg DHA/pouch at 4 h post-TNFα injection. At 6 h (within the resolution phase), pouches were lavaged (3 ml saline) and exudate cells were enumerated Inhibition of TNFα stimulated (100 ng/pouch) PMN infiltration with i.v. tail injection of either 17R-HDHA (as prepared with COX-2 vide infra), 5S,12,18R-HEPE, or a 15-epi-LXA4 analog were determined with pouch lavages taken at 4 h. Peritonitis was performed using 6 to 8-week-old FVB male mice (Charles River Laboratories) fed laboratory Rodent Diet 5001 (Purina Mills) that were anesthetized with isoflurane, and compounds to be tested (125 μl) were administered intravenously. Zymosan A in 1 ml (1 mg/ml) was injected ˜1-1.5 min later in the peritoneum. Each test compound (100 ng/incubation, i.e. 17R-HDHA in ethanol) or vehicle alone was suspended in ˜5 μl and mixed in sterile saline 120 μl. Two hours after the intraperitoneal injections, and in accordance with the Harvard Medical Area Standing Committee on Animals protocol #02570, mice were euthanized and peritoneal lavages rapidly collected for enumeration.
Peritonitis was induced in 6 to 8 week old male FVB mice by peritoneal injection of 1 mg Zymosan A. Compounds 4,17S and 10,17S-diHDHA were injected by intravenous bolus injection, 1.5 minutes before Zymosan A treatment. Two hours after induction of peritonitis, rapid peritoneal lavages were collected and cell type enumeration was performed.

[1] = test system: airway leukocyte accumulation; assay: OVA sensitization and aerosol challenge: lung histology and BAL leukocytes; assay type: in vivo
Description: To determine if PD1 and Resolvin E1 had properties of a counter-regulatory mediator during airway inflammation, physiologically relevant quantities (2, 20 or 200 ng) were administered by intravenous injection to allergen sensitized animals just prior (30 min) to aerosol challenge on 4 consecutive days. […] In conjunction with decreased airway inflammation, levels of the counter-regulatory eicosanoid LXA4 were also […] in the presence of PD1 (data not shown).
(§1) Five to seven week old male FvB mice (Charles River Laboratories, Wilmington, Mass.) were housed in isolation cages under viral antibody-free conditions. Mice were fed a standard diet (Laboratory Rodent Diet 5001, PMI Nutrition International, Richmond, Ind.) that contained no less than 4.5% total fat with 0.26% omega-3 fatty acids and <0.01% C20:4. After Harvard Medical Area IRB approval (Protocol #02570), mice were sensitized with intraperitoneal injections of ovalbumin (OVA) (Grade III; Sigma Chemical Co., St. Louis, Mo.) (10 μg) plus 1 mg aluminum hydroxide (ALUM) (J. T. Baker Chemical Co.; Phillipsburg, N.J.) as adjuvant in 0.2 ml PBS on days 0 and 7. On days 14, 15, 16 and 17, the mice received PD1 (2, 20 or 200 ng), Resolvin E1 (200 ng) (products of biogenic synthesis (Hong, Gronert et al. 2003)), or PBS with 1.6 mM CaCl2 and 1.6 mM MgCl2 (0.1 ml) by intravenous injection 30 min prior to an aerosol challenge containing either PBS or 6% OVA for 25 min/day. On day 18, 24 h after the last aerosol challenge, airway responsiveness to aerosolized methacholine (0, 20, 50 and 75 mg, 10 sec) was measured, bilateral bronchoalveolar lavage (BAL) (2 aliquots of 1 ml PBS plus 0.6 mM EDTA) was performed or tissues were harvested for histological analysis. Lung resistance was measured using a Flexivent ventilator (SciReq, Montreal, Quebec). Resistance was measured as a function of time for each animal, and peak and average values for each dose of methacholine were recorded. No BAL or histological analysis was performed on those animals undergoing airway hyper-responsiveness or lipid extraction studies.
(§2) Tissue morphometry was performed by a member (K. Haley) of the Lung Histopathology Core Laboratory at Brigham and Women's Hospital who was blinded to the experimental conditions prior to histological analyses. Three fields per slide were examined at 200× magnification for vessels, large airways and alveoli with EOS counted at 400× magnification in randomly assigned fields. Vessels were identified by perivascular smooth muscle, and large airways were identified by at least ½ their diameter either cuboidal or columnar epithelia. Measurement of inflammatory mediators was determined in cell-free BAL fluid (2000 g, 10 min) by sensitive and specific ELISAs, in tandem, for interleukin-5 (IL-5), IL-12, IL-13, PGD2 (R&D Systems, Minneapolis, Minn.), cysteinyl LTs, (Cayman Chemical Co, Ann Arbor, Mich.), and LXA4 (Neogen, Lexington, Ky.). Cells in BALF were resuspended in PBS, enumerated by hemocytometer, and concentrated onto microscope slides by cytocentrifuge (STATspin) (265 g). Cells were stained with a Wright-Giemsa stain (Sigma Chemical Co.) to determine leukocyte differentials (after counting ≧200 cells).

[2] = test system: BALF cytokines and lipid mediators; assay: OVA model: inflammatory mediators in BAL fluid by ELISA; assay type: in vivo, FvB mice
From the text: as §1, §2

[3] = test system: airway hyper-responsiveness; assay: OVA model: airway responsiveness to inhaled methacholine (lung resistance); assay type: in vivo, FvB mice; conditions: PD1 0-200 ng; methacholine 0, 20, 50, 75 mg
Description: Because increased airway reactivity is a diagnostic hallmark of asthma, it was also determined if PD 1 regulated airway hyper-responsiveness to inhaled methacholine. After allergen sensitization and aerosol challenge in the presence of PD 1 (0-200 ng), animals were ventilated and exposed (10 sec) to increasing concentrations of inhaled methacholine (0, 20, 50 and 75 mg).
Five to seven week old male FvB mice (Charles River Laboratories, Wilmington, Mass.) were housed in isolation cages under viral antibody-free conditions. Mice were fed a standard diet (Laboratory Rodent Diet 5001, PMI Nutrition International, Richmond, Ind.) that contained no less than 4.5% total fat with 0.26% omega-3 fatty acids and <0.01% C20:4. […] On day 18, 24 h after the last aerosol challenge, airway responsiveness to aerosolized methacholine (0, 20, 50 and 75 mg, 10 sec) was measured, bilateral bronchoalveolar lavage (BAL) (2 aliquots of 1 ml PBS plus 0.6 mM EDTA) was performed or tissues were harvested for histological analysis. Lung resistance was measured using a Flexivent ventilator (SciReq, Montreal, Quebec). Resistance was measured as a function of time for each animal, and peak and average values for each dose of methacholine were recorded. […]

[4] = i.v. 30 min before aerosol challenge on 4 days

CC/C=C\C[C@H](O)\C=C/C=C/C=C/C(O)C/C=C\C/C=C\CCC(=O)O (stereo in doubt) [PD1, 10,17S-dihydroxy-4,7,15,19-cis-11,13-trans-docosahexaenoic acid]
inhibition of PMN/leukocyte infiltration (PMN infiltration; listed as 10,17S-docosatrienes): potent inhibition | inhibition of PMN/leukocyte infiltration (PMN infiltration; listed as 10,17 di-HDHA): inhibited | eosinophil and lymphs (FIG. 25) ([1]; 10,17-DT 20 ng and 200 ng, Resolvin E1 200 ng): reduced | total leukocytes, EOS and Lymphs in BAL fluid ([1]; PD1 2, 20 or 200 ng, Resolvin E1 200 ng i.v.): decreased | behavioral or physical signs of toxicity ([1]; PD1 treatment, nanogram quantities i.v.): No behavioral or physical signs of toxicity | lowest dose reducing TH2 lymphocyte activation / eosinophil recruitment ([1]; i.v.): 2 ng | EOS tissue infiltration around vessels, large and peripheral airways (morphometry) [1, 4]: significant decreases | edema and epithelial hyperplasia [1, 4]: markedly decreased | eosinophils and lymphocytes in peribronchiolar regions and airspaces ([1]; i.v. 30 min before aerosol challenge on 4 days, vs vehicle): substantially less | IL-12 levels ([2]; BAL fluid): no significant effect | allergen-induced increase in CysLTs ([2]; BAL fluid): blocked allergen-induced increases | allergen-induced increase in IL-13 ([2]; BAL fluid): blocked allergen-induced increases | allergen-induced increase in PGD2 ([2]; BAL fluid): blocked allergen-induced increases | potency of inhibitory concentrations relative to the LX analog ([2]; IL-13 and CysLT generation): 1 to 2 log orders | levels of LXA4 ([2]; data not shown): diminished | peak and average lung resistance in response to methacholine [3]: decreased both peak and average lung resistance
